Holding throughout (format): cell-based, human
Series [1] concerns HCT-116 cells. The experiment in a line: Inhibition test for sphere-forming ability of cancer cells (Test Example 1), HCT-116. The conditions noted are these: for IC50 / (100%-inhibition rate of cell proliferation) at 1 μmol/L, HCT-116 / viability at 1 µM: HCT-116 cells; for IC50: concentration for 50% inhibition of cell proliferation, read-out: IC50 (μmol/L) HCT-116 (Sphere IC50 value); for (100%-inhibition rate of cell proliferation) at 1 μmol/L, HCT-116 / viability at 1 µM: value with %, 1 μmol/L; for inhibitory effect on the sphere-forming ability of cancer cells: Test Example 1, summary in words, cell line not given (HCT-116, HT-29, FaDu tested); for viability at 1 µM: read-out: (100%-inhibition rate of cell proliferation) at 1 μmol/L. In short, it runs like this:
(§1)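 Sphere IC50 (μmol/L) derived from CellTiter-Glo luminescence after 4 days of compound treatment (final DMSO 0.1%). Non-adherent, serum-free culture of 350-800 cells/well in DMEM/F12 supplemented with 2% B27, EGF, bFGF and insulin assessed self-renewal.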

The test system of series [2] is HT-29 cells. The experiment in a line: Inhibition test for sphere-forming ability of cancer cells (Test Example 1), HT-29. The note with it: for IC50: concentration for 50% inhibition of cell proliferation, read-out: IC50 (μmol/L) HT-29 (Sphere IC50 value); for (100%-inhibition rate of cell proliferation) at 1 μmol/L, HT-29: value with %; for viability at 1 µM: read-out: (100%-inhibition rate of cell proliferation) at 1 μmol/L, 1 μmol/L, value with %. Summed up:
as §1

Series [3] has as its system FaDu cells. The experiment in a line: Inhibition test for sphere-forming ability of cancer cells (Test Example 1), FaDu. The note with it: for IC50: concentration for 50% inhibition of cell proliferation, read-out: IC50 (μmol/L) FaDu (Sphere IC50 value); for (100%-inhibition rate of cell proliferation) at 1 μmol/L, FaDu: value with %; for viability at 1 µM: read-out: (100%-inhibition rate of cell proliferation) at 1 μmol/L, 1 μmol/L, value with %. In short, it runs like this: as §1

Where two headings read alike, the source gives them in different places.

In the case of `O=C(/C=C/c1ccccc1F)Nc1cn(Cc2cccc(Cl)c2)cn1` [Example 50], the IC50 came to 2.48 µmol/L in series [1], 0.89 µmol/L in series [2] and 6.7 µmol/L in series [3].

In the case of `O=C(/C=C/c1cccc(Oc2ccccc2)c1)Nc1cn(Cc2cccc(OC(F)(F)F)c2)cn1` [Example 108], the IC50 in series [1] (Homo sapiens) turned out to be 3.31 µmol/L; in series [2] (Homo sapiens), 3.43 µmol/L; in series [3] (Homo sapiens) it was 9.77 µmol/L.

On to `COc1ccc(C(=O)Nc2cn(Cc3cccc(OCc4ccccc4)c3)cn2)cc1OC` [Example 169], for which, in series [1], the “(100%-inhibition rate of cell proliferation) at 1 μmol/L, HCT-116” value is listed as 50.9%. In addition, the “(100%-inhibition rate of cell proliferation) at 1 μmol/L, HT-29” value in series [2] stood at 35.4%. The “(100%-inhibition rate of cell proliferation) at 1 μmol/L, FaDu” value in series [3] is recorded as 68.6%.

`CCOc1ccc(/C=C/C(=O)Nc2cn(Cc3cccc(Cl)c3)cn2)cc1` [Example 74]: the IC50 in series [1] is 0.05 µmol/L; in series [2], < 0.01 µmol/L; in series [3], < 0.01 µmol/L. Also, the “inhibitory effect on the sphere-forming ability of cancer cells” value (“inhibitory effect” below) in series [1] is “particularly potent inhibitory effect”.

Take `O=C(/C=C/c1ccc(O)c(O)c1)Nc1cn(Cc2cccc(Cl)c2)cn1` [Example 21, (E)-N-(1-(3-Chlorobenzyl)-1H-imidazol-4-yl)-3-(3,4-dihydroxyphenyl)acrylamide]: the values for the IC50 in series [1] (Homo sapiens), in series [2] (Homo sapiens) and in series [3] (Homo sapiens) were 7.05 µmol/L, 6.65 µmol/L and 0.66 µmol/L, respectively.

`Cn1cc(/C=C/C(=O)Nc2cn(Cc3cccc(Cl)c3)cn2)ccc1=O` [Example 12]: the results for the IC50 in series [1] (Homo sapiens), in series [2] (Homo sapiens) and in series [3] (Homo sapiens) were 7.54 µmol/L, 0.92 µmol/L and 1.44 µmol/L, respectively.

Regarding `CC(C)Oc1ccc(C(=O)Nc2cn(Cc3cccc(Cl)c3)cn2)cc1` [Example 140], the viability at 1 µM in series [1] (Homo sapiens) is 31.4%; in series [2] (Homo sapiens), 83%; in series [3] (Homo sapiens), 81.8%.

With `Cc1cc(/C=C/C(=O)Nc2cn(Cc3cccc(Cl)c3)cn2)oc1C` [Example 93], the IC50 in series [1] is 0.82 µmol/L; in series [2], 4.93 µmol/L; in series [3] it was 0.09 µmol/L. In series [1], the “inhibitory effect” value was “particularly potent inhibitory effect”.

In the case of `Cc1ccncc1/C=C/C(=O)Nc1cn(Cc2cccc(Cl)c2)cn1` [Example 91], the figures for the IC50 in series [1], in series [2] and in series [3] were 7.51 µmol/L, 4.5 µmol/L and 6.15 µmol/L, respectively.

Consider `CCOc1ccc(C(=O)Nc2cn(Cc3cccc(C(F)(F)F)c3)cn2)cn1` [Example 210], for which the IC50 in series [1] was found to be 0.81 µmol/L; in series [2], 0.82 µmol/L; in series [3] it was 0.79 µmol/L.

For `COCCOc1cc(/C=C/C(=O)Nc2cn(Cc3cccc(Cl)c3)cn2)ccc1OC` [Example 29, (E)-N-(1-(3-Chlorobenzyl)-1H-imidazol-4-yl)-3-(4-methoxy-3-(2-methoxyethoxy)phenyl)acrylamide], the IC50 in series [1] (Homo sapiens) stood at 5.87 µmol/L; in series [2] (Homo sapiens), 0.89 µmol/L; in series [3] (Homo sapiens) it was 0.76 µmol/L.

On to `COc1ccc(C(=O)Nc2cn(Cc3ccc4c(c3)C(C)(C)CCC4(C)C)cn2)cc1OC` [Example 172], for which the “(100%-inhibition rate of cell proliferation) at 1 μmol/L, HCT-116” value in series [1] is 34.3%. Besides, the “(100%-inhibition rate of cell proliferation) at 1 μmol/L, HT-29” value in series [2] is listed as 16.6%. Also, the “(100%-inhibition rate of cell proliferation) at 1 μmol/L, FaDu” value in series [3] was determined as 42.3%.

`COc1ccc(C(=O)Nc2cn(Cc3ccc(Cl)s3)cn2)cc1OC` [Example 173]: the “(100%-inhibition rate of cell proliferation) at 1 μmol/L, HCT-116” value in series [1] turned out to be 29.5%. For the same molecule, the “(100%-inhibition rate of cell proliferation) at 1 μmol/L, HT-29” value in series [2] was determined as 21.6%. Moreover, in series [3], the “(100%-inhibition rate of cell proliferation) at 1 μmol/L, FaDu” value was 21.4%.

As for `COc1cccc(OC)c1/C=C/C(=O)Nc1cn(Cc2cccc(Cl)c2)cn1` [Example 76], the IC50 in series [1] turned out to be 6.18 µmol/L; in series [2] it was 2.71 µmol/L; in series [3], 4.11 µmol/L.

With `O=C(Nc1cn(Cc2cccc(Cl)c2)cn1)c1ccc(OC2CCCC2)nc1` [Example 208], the values for the IC50 in series [1], in series [2] and in series [3] were > 10 µmol/L, 0.81 µmol/L and 5.33 µmol/L, respectively.

In the case of `O=C(/C=C/c1ccncc1)Nc1cn(Cc2cccc(Cl)c2)cn1` [Example 97], the results for the IC50 in series [1], in series [2] and in series [3] were 0.08 µmol/L, 0.05 µmol/L and 0.06 µmol/L, respectively. Further, the “inhibitory effect” value in series [1] was “particularly potent inhibitory effect”.

For the molecule `O=C(/C=C/c1ccc([N+](=O)[O-])cc1)Nc1cn(Cc2cccc(Cl)c2)cn1` [Example 68], the results for the IC50 in series [1], in series [2] and in series [3] were 0.07 µmol/L, < 0.01 µmol/L and 0.01 µmol/L, respectively. In series [1], the “inhibitory effect” value is “particularly potent inhibitory effect”.

As to `O=C(/C=C/c1ccco1)Nc1cn(Cc2cccc(Cl)c2)cn1` [Example 87], the IC50 worked out at 2.37 µmol/L in series [1], 5.53 µmol/L in series [2] and 5.14 µmol/L in series [3].

Turning to `COCCOc1ccc(C(=O)Nc2cn(Cc3cccc(Cl)c3)cn2)cc1` [Example 265, N-[1-(3-Chlorobenzyl)-1H-imidazol-4-yl]-4-(2-methoxyethoxy)benzamide], the viability at 1 µM in series [1] (Homo sapiens) stood at 41.7%; in series [2] (Homo sapiens), 33.1%; in series [3] (Homo sapiens), 41.2%.

Take `COc1ccc(C(=O)Nc2cn(Cc3cccc(Cl)c3)cn2)cn1` [Example 202]: the IC50 in series [1] came to 0.96 µmol/L; in series [2], 5.68 µmol/L; in series [3], 6.87 µmol/L.

Consider `COc1cc(/C=C/C(=O)Nc2cn(Cc3cccc(Cl)c3)cn2)cc(OC)c1OC` [Example 82], for which the IC50 was found to be 6.51 µmol/L in series [1], 0.99 µmol/L in series [2] and 1.76 µmol/L in series [3].

For the molecule `O=C(/C=C/c1ccc(O)cc1)Nc1cn(Cc2cccc(Cl)c2)cn1` [Example 84], the IC50 in series [1] amounted to 0.59 µmol/L; in series [2], 0.52 µmol/L; in series [3], 0.68 µmol/L.

For `O=C(Nc1cn(Cc2cccc(C(F)(F)F)c2)cn1)c1ccc(CC(F)F)nc1` [Example 187], the IC50 in series [1] is 7.31 µmol/L; in series [2], 3.74 µmol/L; in series [3], 8.64 µmol/L.

As to `COc1ccc(C(=O)Nc2cn(Cc3cc(Cl)nc(Cl)c3)cn2)cc1OC` [Example 170], the “(100%-inhibition rate of cell proliferation) at 1 μmol/L, HCT-116” value in series [1] was found to be 33.8%. Besides, the “(100%-inhibition rate of cell proliferation) at 1 μmol/L, HT-29” value in series [2] was 24.9%. Besides, the “(100%-inhibition rate of cell proliferation) at 1 μmol/L, FaDu” value in series [3] turned out to be 27.1%.

For the molecule `CCOc1ccc(/C=C/C(=O)Nc2cn(Cc3cccc(Cl)c3)cn2)cn1` [Example 1, (E)-N-(1-(3-Chlorobenzyl)-1H-imidazol-4-yl)-3-(6-ethoxypyridin-3-yl)acrylamide], the IC50 is 0.32 µmol/L in series [1] (Homo sapiens), 0.02 µmol/L in series [2] (Homo sapiens) and 0.05 µmol/L in series [3] (Homo sapiens).

As to `O=C(Nc1cn(Cc2cccc(C(F)(F)F)c2)cn1)/C(F)=C/c1cccnc1` [Example 106], the IC50 worked out at 8.29 µmol/L in series [1] (Homo sapiens), 0.8 µmol/L in series [2] (Homo sapiens) and 3.06 µmol/L in series [3] (Homo sapiens).

With `COc1ccc(/C=C/C(=O)Nc2cn(Cc3cccc(Cl)c3)cn2)cc1` [Example 118, (E)-N-(1-(3-Chlorobenzyl)-1H-imidazol-4-yl)-3-(4-methoxyphenyl)acrylamide], the IC50 was 0.1 µmol/L in series [1] (Homo sapiens), < 0.01 µmol/L in series [2] (Homo sapiens) and 0.07 µmol/L in series [3] (Homo sapiens). In addition, the “inhibitory effect” value in series [1] is “particularly potent inhibitory effect”.

As to `O=C(Nc1cn(Cc2cccc(C(F)(F)F)c2)cn1)c1ccc2cccnc2c1` [Example 195], the results for the IC50 in series [1], in series [2] and in series [3] were > 10 µmol/L, 5.55 µmol/L and > 10 µmol/L, respectively.

Consider `O=C(Nc1cc(-c2ccccc2)n[nH]1)c1cn(Cc2cccc(Cl)c2)cn1` [Example 259], for which the IC50 in series [1] worked out at 0.92 µmol/L; in series [2] it was 0.74 µmol/L; in series [3], 0.74 µmol/L.

With `O=C(Nc1cn(Cc2cccc(Cl)c2)cn1)c1ccc2nccn2c1` [Example 176], the IC50 stood at 7.16 µmol/L in series [1], 3.43 µmol/L in series [2] and 5.16 µmol/L in series [3].

For `O=C(/C=C/c1ccc2ccccc2c1)Nc1cn(Cc2cccc(Cl)c2)cn1` [Example 95], the IC50 is > 10 µmol/L in series [1], 3.23 µmol/L in series [2] and 0.99 µmol/L in series [3].

Turning to `O=C(/C=C/c1ccccc1Cl)Nc1cn(Cc2cccc(Cl)c2)cn1` [Example 51], the IC50 in series [1] turned out to be 7.2 µmol/L; in series [2], 3.75 µmol/L; in series [3] it was 6.13 µmol/L.

Turning to `COc1cc(C(=O)Nc2cn(Cc3cccc(Cl)c3)cn2)cnc1OC` [Example 218], the figures for the IC50 in series [1], in series [2] and in series [3] were 0.58 µmol/L, 0.06 µmol/L and 0.08 µmol/L, respectively. Also, the “inhibitory effect” value in series [1] is “particularly potent inhibitory effect”.

As for `CCNC(=O)c1ccc(/C=C/C(=O)Nc2cn(Cc3cccc(Cl)c3)cn2)cn1` [Example 26, (E)-5-(3-((1-(3-Chlorobenzyl)-1H-imidazol-4-yl)amino)-3-oxoprop-1-en-1-yl)-N-ethylpicolinamide], the IC50 in series [1] (Homo sapiens) was > 10 µmol/L; in series [2] (Homo sapiens), 5.83 µmol/L; in series [3] (Homo sapiens), 5.49 µmol/L.

As to `COc1ccc(Cn2cnc(NC(=O)c3ccc(OC)c(OC)c3)c2)cc1` [Example 164], in series [1], the “(100%-inhibition rate of cell proliferation) at 1 μmol/L, HCT-116” value came out at 37.4%. For the same molecule, the “(100%-inhibition rate of cell proliferation) at 1 μmol/L, HT-29” value in series [2] is listed as 89.0%. Moreover, the “(100%-inhibition rate of cell proliferation) at 1 μmol/L, FaDu” value in series [3] is reported as 92.3%.

For the molecule `Cc1cccc(/C=C/C(=O)Nc2cn(Cc3cccc(Cl)c3)cn2)c1` [Example 73], the values for the IC50 in series [1], in series [2] and in series [3] were 4.53 µmol/L, 1.49 µmol/L and 0.85 µmol/L, respectively.

The values above are taken from US10898469B2, “Imidazolylamide derivative” (Sumitomo Dainippon Pharma Co., Ltd., priority 2016, dated 2021).
